Biological target: CB1 (rCB1) (Rattus norvegicus, UniProt P20272)
Test: Single-point radioligand displacement screen
Assay type: binding
Details: for % 1H-CP-55,940 displacement (mean) from single point screen: 10 µM, 1 µM or 300 nM by cell colour (not visible); for rep1_displacement / rep2_displacement / rep3_displacement: Figure 1c source data; for rep1_displacement: replicate 1; for rep2_displacement: replicate 2; for rep3_displacement: replicate 3

Chain of CB1 (rCB1) (P20272 whole entry): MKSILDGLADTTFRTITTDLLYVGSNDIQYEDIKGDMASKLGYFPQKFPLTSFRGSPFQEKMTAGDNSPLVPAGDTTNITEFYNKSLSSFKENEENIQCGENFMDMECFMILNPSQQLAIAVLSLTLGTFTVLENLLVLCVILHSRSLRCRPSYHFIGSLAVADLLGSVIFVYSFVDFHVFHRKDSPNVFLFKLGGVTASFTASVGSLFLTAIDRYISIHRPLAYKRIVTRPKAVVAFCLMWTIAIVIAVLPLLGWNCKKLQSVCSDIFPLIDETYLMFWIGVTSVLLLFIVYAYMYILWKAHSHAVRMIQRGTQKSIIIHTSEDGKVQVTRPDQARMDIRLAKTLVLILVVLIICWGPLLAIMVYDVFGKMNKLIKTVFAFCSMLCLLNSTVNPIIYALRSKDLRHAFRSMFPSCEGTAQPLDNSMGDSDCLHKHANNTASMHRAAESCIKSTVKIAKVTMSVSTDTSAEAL

| Structure (SMILES) | % 1H-CP-55,940 displacement (mean) from single point screen [%] | rep1_displacement | rep2_displacement | rep3_displacement | % radioligand displacement [S.D] (single point at 10 µM, three replicates) |
| --- | --- | --- | --- | --- | --- |
| Cc1nc(CC2CC2)oc1-c1nc(Cc2ccc3c(c2)OCO3)no1 [compound 97058] | 17.45 | – | – | – | – |
| COC(=O)C(NC(=O)c1ccc(-c2ccccc2F)o1)c1ccsc1 (centres unmarked) [compound 07099] | 3.88 | – | – | – | – |
| O=C(OCC1CSc2ccccc2O1)c1csc(Cc2ccccc2)n1 (centres unmarked) [compound 86798] | 2.04 | – | – | – | – |
| CC(Oc1ccccc1)c1noc(-c2ccc(=O)n(-c3ccc(F)cc3)n2)n1 (centres unmarked) [compound 34765] | 18.38 | 25 | 13.3 | 16.8 | – |
| Cc1ccc(OCCC(=O)N2CC3CCCN3c3ccccc32)c(C)c1 (centres unmarked) [compound 26701] | 35.34 | 39 | 34.5 | 32.6 | – |
| CCOC(=O)c1nc(-c2nc(Cc3cc4c(cc3Br)OCO4)no2)cs1 [7019_300] | 3.83 | – | – | – | – |
| O=C1Cc2cc(-c3csc(Cc4ccc(F)cc4)n3)cc3c2N1CCC3 [‘1038] | 53.57 | 56.9 | 51.4 | 52.5 | 53.6% [2.91] |
| Cn1nc(-c2nnc(CCOc3ccc(Cl)cc3)o2)c2ccccc2c1=O [0450_24] | 12.07 | – | – | – | – |
| Cc1nc(CC2CC2)oc1-c1nc(Cc2ccc(OCc3ccccn3)cc2)no1 [compound 9841] | 19.42 | – | – | – | – |
| COC(=O)C(NC(=O)c1cn(Cc2ccccc2)nn1)c1cccs1 (centres unmarked) [compound 54064] | 4.29 | – | – | – | – |
| COC(=O)[C@@H](NC(=O)c1cc(C)n(-c2cccc(F)c2)n1)c1ccc(OC)cc1 [compound 59513] | 10.54 | – | – | – | – |
| CC1(C)CN(C(=O)c2cn(-c3cccc(C(F)(F)F)c3)nn2)C1c1cccs1 (centres unmarked) [10_20] | 52.38 | – | – | – | – |
| Cc1nc(CC2CC2)oc1-c1nc(-c2ccc3c(c2)OCO3)no1 [compound 5962] | 10.45 | – | – | – | – |
| CCOC(=O)C1CN(C(=O)c2cc(C)n(-c3cccc(C(F)(F)F)c3)n2)CC12CC2 (centres unmarked) [10_21] | 83.57 | – | – | – | – |
| COC(=O)c1cc(C(=O)N2CCc3ccc(Cl)cc3C2)cc([N+](=O)[O-])c1 [compound 25719] | 24.96 | 30.1 | 24.6 | 20.2 | – |
| O=C(c1ccccc1CS(=O)(=O)c1ccccc1)N1CCC(c2cccc(F)c2)C1 (centres unmarked) [compound 41949] | 33.74 | 30 | 36.7 | 34.6 | – |
| Fc1ccc(-n2ncc3c(SCc4cc(-c5ccco5)on4)ncnc32)cc1 [compound 23397] | 17.08 | 23 | 15.9 | 12.4 | – |
| COc1cc(C(=O)OCC2CCCN2c2ccc(C)nn2)ccc1Cl (centres unmarked) [compound 65703] | 17.38 | 11.4 | 18.4 | 22.4 | – |
| COC(=O)C(NC(=O)c1cc(-c2cccc(F)c2)c2ccccc2c1)c1cccs1 (centres unmarked) [1486_17] | 8.92 | – | – | – | – |
| CCOC(=O)C1(NC(=O)c2cc(C)n(-c3cccc(Cl)c3)n2)CCCCC1 [compound 64801] | 31.60 | – | – | – | – |
| N#CCCn1ncc(C(=O)N2CCC(F)(c3cc(F)cc(F)c3)C2)c1-c1ccccc1 (centres unmarked) [compound 34734] | 15.43 | 21.6 | 10.3 | 14.4 | – |
| Cc1c(C(=O)OCC2CSc3ccccc3O2)nnn1Cc1ccc(F)cc1 (centres unmarked) [compound 61926] | 64.39 | – | – | – | – |

Source: publication PMC11882969 (Nature Communications, 2025)
